Measurements: PubChem BioAssay (NCI)
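Cultured in 96-well plates, cells were exposed to test compound for 48 hours across five concentrations. Definition used: TGI = concentration required for complete inhibition of growth.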

What was measured:
Assay in all cases: NCI anticancer screen, dose series, 48 h
K-562 leukemia = system: K-562 leukemia
HCC-2998 colon = system: HCC-2998 colon
M14 melanoma = system: M14 melanoma
RXF 393 renal = system: RXF 393 renal
EKVX NSCLC = system: EKVX NSCLC
SF-539 CNS = system: SF-539 CNS
SNB-78 CNS = system: SNB-78 CNS
SK-MEL-28 melanoma = system: SK-MEL-28 melanoma
M19-MEL melanoma = system: M19-MEL melanoma
SK-MEL-2 melanoma = system: SK-MEL-2 melanoma
NCI-H522 lung = system: NCI-H522 lung
CCRF-CEM leukemia = system: CCRF-CEM leukemia
SW-620 colon = system: SW-620 colon
HL-60(TB) leukemia = system: HL-60(TB) leukemia
OVCAR-5 ovarian = system: OVCAR-5 ovarian
SF-295 CNS = system: SF-295 CNS
KM20L2 colon = system: KM20L2 colon
RPMI-8226 leukemia = system: RPMI-8226 leukemia
COLO 205 colon = system: COLO 205 colon
TK-10 renal = system: TK-10 renal
SNB-75 CNS = system: SNB-75 CNS
DMS 114 small cell lung = system: DMS 114 small cell lung
HOP-92 NSCLC = system: HOP-92 NSCLC
OVCAR-8 ovarian = system: OVCAR-8 ovarian
A549 NSCLC = system: A549 NSCLC
HT29 colon = system: HT29 colon
SF-268 CNS = system: SF-268 CNS
HOP-62 NSCLC = system: HOP-62 NSCLC
UACC-257 melanoma = system: UACC-257 melanoma
DLD-1 colon = system: DLD-1 colon
KM12 colon = system: KM12 colon
SK-MEL-5 melanoma = system: SK-MEL-5 melanoma
CAKI-1 renal = system: CAKI-1 renal
A498 renal = system: A498 renal
UO-31 renal = system: UO-31 renal
ACHN renal = system: ACHN renal
OVCAR-4 ovarian = system: OVCAR-4 ovarian
SN12C renal = system: SN12C renal
MOLT-4 leukemia = system: MOLT-4 leukemia
MALME-3M melanoma = system: MALME-3M melanoma
SNB-19 CNS = system: SNB-19 CNS
U251 CNS = system: U251 CNS
IGROV1 ovarian = system: IGROV1 ovarian
786-0 renal = system: 786-0 renal
RXF-631 renal = system: RXF-631 renal
NCI-H23 lung = system: NCI-H23 lung
LOX IMVI melanoma = system: LOX IMVI melanoma
OVCAR-3 ovarian = system: OVCAR-3 ovarian
LXFL 529 NSCLC = system: LXFL 529 NSCLC
XF 498 CNS = system: XF 498 CNS
NCI-H460 lung = system: NCI-H460 lung
NCI-H226 lung = system: NCI-H226 lung

COc1cc(C2C(C(=O)Nc3cc(F)c(F)cc3F)=C(C)NC(C)=C2C(=O)Nc2cc(F)c(F)cc2F)ccc1O
TGI (K-562 leukemia): 49.6 µM
TGI (HCC-2998 colon): 33.4 µM
TGI (M14 melanoma): > 100 µM
TGI (RXF 393 renal): 52.2 µM
TGI (EKVX NSCLC): 73.9 µM
TGI (SF-539 CNS): 59.6 µM
TGI (SNB-78 CNS): > 100 µM
TGI (SK-MEL-28 melanoma): > 100 µM
TGI (M19-MEL melanoma): 77.3 µM
TGI (SK-MEL-2 melanoma): 79.1 µM
TGI (NCI-H522 lung): 36.3 µM
TGI (CCRF-CEM leukemia): 45.6 µM
TGI (SW-620 colon): > 100 µM
TGI (HL-60(TB) leukemia): 40.7 µM
TGI (OVCAR-5 ovarian): 59.9 µM
TGI (SF-295 CNS): 55.3 µM
TGI (KM20L2 colon): > 100 µM
TGI (RPMI-8226 leukemia): 47.3 µM
TGI (COLO 205 colon): > 100 µM
TGI (TK-10 renal): 87.9 µM
TGI (SNB-75 CNS): 25.8 µM
TGI (DMS 114 small cell lung): 41.8 µM
TGI (HOP-92 NSCLC): 18.4 µM
TGI (OVCAR-8 ovarian): 96.7 µM
TGI (A549 NSCLC): 95.8 µM
TGI (HT29 colon): > 100 µM
TGI (SF-268 CNS): > 100 µM
TGI (HOP-62 NSCLC): 97.9 µM
TGI (UACC-257 melanoma): 54.8 µM
TGI (DLD-1 colon): > 100 µM
TGI (KM12 colon): 35.8 µM
TGI (SK-MEL-5 melanoma): 53.9 µM
TGI (CAKI-1 renal): 42.8 µM
TGI (A498 renal): 55.3 µM
TGI (UO-31 renal): 35.5 µM
TGI (ACHN renal): 65.3 µM
TGI (OVCAR-4 ovarian): > 100 µM
TGI (SN12C renal): 84.5 µM
TGI (MOLT-4 leukemia): 45.2 µM
TGI (MALME-3M melanoma): 74.5 µM
TGI (SNB-19 CNS): > 100 µM
TGI (U251 CNS): > 100 µM
TGI (IGROV1 ovarian): > 100 µM
TGI (786-0 renal): > 100 µM
TGI (RXF-631 renal): 37.9 µM
TGI (NCI-H23 lung): 52.8 µM
TGI (LOX IMVI melanoma): 32.9 µM
TGI (OVCAR-3 ovarian): 38 µM
TGI (LXFL 529 NSCLC): > 100 µM
TGI (XF 498 CNS): 33.1 µM
TGI (NCI-H460 lung): > 100 µM
TGI (NCI-H226 lung): 79.5 µM
